Data from PubChem BioAssay (NCI).
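Assay format: 96-well plates, 48-hour exposure. Abbreviation: GI50, concentration required for 50% inhibition of growth. Definition used: TGI = concentration required for complete inhibition of growth.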

Legend:
Assay in all cases: NCI tumour cell line growth inhibition, 48 h
[1] = tested on: RXF 393 renal
[2] = tested on: SF-295 CNS
[3] = tested on: NCI-H522 lung
[4] = tested on: SF-539 CNS
[5] = tested on: HCT-15 colon
[6] = tested on: 786-0 renal
[7] = tested on: HCC-2998 colon
[8] = tested on: NCI/ADR-RES ovarian
[9] = tested on: OVCAR-5 ovarian
[10] = tested on: UACC-257 melanoma
[11] = tested on: HCT-116 colon
[12] = tested on: SK-OV-3 ovarian
[13] = tested on: NCI-H226 lung
[14] = tested on: A498 renal
[15] = tested on: UO-31 renal
[16] = tested on: PC-3 prostate
[17] = tested on: SF-268 CNS
[18] = tested on: CAKI-1 renal
[19] = tested on: SR leukemia
[20] = tested on: MOLT-4 leukemia
[21] = tested on: SNB-75 CNS
[22] = tested on: ACHN renal
[23] = tested on: UACC-62 melanoma
[24] = tested on: LOX IMVI melanoma
[25] = tested on: DU-145 prostate
[26] = tested on: OVCAR-3 ovarian
[27] = tested on: NCI-H23 lung
[28] = tested on: COLO 205 colon
[29] = tested on: SN12C renal
[30] = tested on: SNB-19 CNS
[31] = tested on: A549 NSCLC
[32] = tested on: TK-10 renal
[33] = tested on: MCF7 breast
[34] = tested on: SW-620 colon
[35] = tested on: HL-60(TB) leukemia
[36] = tested on: HT29 colon
[37] = tested on: OVCAR-4 ovarian
[38] = tested on: BT-549 breast
[39] = tested on: OVCAR-8 ovarian
[40] = tested on: T-47D breast
[41] = tested on: U251 CNS
[42] = tested on: MDA-MB-231 breast
[43] = tested on: SK-MEL-28 melanoma
[44] = tested on: MDA-MB-435
[45] = tested on: SK-MEL-5 melanoma
[46] = tested on: HS 578T breast
[47] = tested on: RPMI-8226 leukemia
[48] = tested on: K-562 leukemia
[49] = tested on: HOP-62 NSCLC
[50] = tested on: M14 melanoma
[51] = tested on: MALME-3M melanoma
[52] = tested on: IGROV1 ovarian
[53] = tested on: SK-MEL-2 melanoma
[54] = tested on: HOP-92 NSCLC
[55] = tested on: CCRF-CEM leukemia
[56] = tested on: KM12 colon
[57] = tested on: NCI-H460 lung

## CC(=O)c1nc2ccccc2n1CCN1CCN(C)CC1
[1]
  GI50: 1.59 µM
  TGI: 18.6 µM
[2]
  GI50: 2.12 µM
  TGI: 15.4 µM
[3]
  GI50: 1.8 µM
  TGI: 6.11 µM
[4]
  GI50: 2.28 µM
  TGI: > 50.4 µM
[5]
  GI50: 25 µM
  TGI: > 100 µM
[6]
  GI50: 17.6 µM
  TGI: > 100 µM
[7]
  GI50: 3.63 µM
  TGI: 26.9 µM
[8]
  GI50: 61.1 µM
  TGI: > 100 µM
[9]
  GI50: 3.5 µM
  TGI: > 100 µM
[10]
  GI50: 5.47 µM
  TGI: > 100 µM
[11]
  GI50: 1.2 µM
  TGI: > 100 µM
[12]
  GI50: 3.61 µM
  TGI: 59.5 µM
[13]
  GI50: 31.5 µM
  TGI: > 100 µM
[14]
  GI50: 3.46 µM
  TGI: > 52.7 µM
[15]
  GI50: 9.35 µM
  TGI: > 100 µM
[16]
  GI50: 2.41 µM
  TGI: > 100 µM
[17]
  GI50: 4.63 µM
  TGI: > 100 µM
[18]
  GI50: 34.1 µM
  TGI: > 100 µM
[19]
  GI50: 1.32 µM
  TGI: > 100 µM
[20]
  GI50: 8.2 µM
  TGI: > 100 µM
[21]
  GI50: 0.0668 µM
  TGI: 1.57 µM
[22]
  GI50: 23.4 µM
  TGI: > 100 µM
[23]
  GI50: 4.11 µM
  TGI: > 100 µM
[24]
  GI50: 2.6 µM
  TGI: > 100 µM
[25]
  GI50: 2.79 µM
  TGI: 12.3 µM
[26]
  GI50: 2.6 µM
  TGI: > 26 µM
[27]
  GI50: 6.01 µM
  TGI: > 100 µM
[28]
  GI50: 1.89 µM
  TGI: 6.39 µM
[29]
  GI50: 4.21 µM
  TGI: > 100 µM
[30]
  GI50: 17.3 µM
  TGI: > 100 µM
[31]
  GI50: 2.63 µM
  TGI: > 100 µM
[32]
  GI50: 11.5 µM
  TGI: 84.3 µM
[33]
  GI50: 1.16 µM
  TGI: > 100 µM
[34]
  GI50: 2.8 µM
  TGI: > 100 µM
[35]
  GI50: 2.62 µM
  TGI: > 26.2 µM
[36]
  GI50: 0.639 µM
  TGI: 10.4 µM
[37]
  GI50: 15.7 µM
  TGI: > 100 µM
[38]
  GI50: 6.21 µM
  TGI: > 100 µM
[39]
  GI50: 3.76 µM
  TGI: > 100 µM
[40]
  GI50: 2.97 µM
  TGI: > 100 µM
[41]
  GI50: 3.82 µM
  TGI: > 100 µM
[42]
  GI50: 2.98 µM
  TGI: > 95.8 µM
[43]
  GI50: 7.15 µM
  TGI: > 100 µM
[44]
  GI50: 0.373 µM
  TGI: 1.69 µM
[45]
  GI50: 3.13 µM
  TGI: > 100 µM
[46]
  GI50: 2.15 µM
  TGI: 25.9 µM
[47]
  GI50: 1.9 µM
  TGI: > 100 µM
[48]
  GI50: 3.95 µM
  TGI: > 100 µM
[49]
  GI50: 3.57 µM
  TGI: > 100 µM
[50]
  GI50: 2.66 µM
  TGI: > 41.6 µM
[51]
  GI50: 2.38 µM
  TGI: > 100 µM
[52]
  GI50: 4.83 µM
  TGI: > 100 µM
[53]
  GI50: 3.28 µM
  TGI: 47.6 µM
[54]
  GI50: 0.416 µM
[55]
  GI50: 3.29 µM
  TGI: > 100 µM
[56]
  GI50: 3.06 µM
  TGI: > 100 µM
[57]
  GI50: 2.3 µM
  TGI: > 100 µM
